One experiment has as its system OCI-Ly1 cells. Put plainly: CellTrace Violet dilution/cell division assay. Format: cell-based, human. As to conditions: OCI-Ly1, 1 μM. Here is the method: (§1) Cell proliferation, viability, and apoptosis assays. […]
(§2) CellTrace Violet reagent (ThermoFisher, Cat#
(§3) C34571) was used as a cell division tracking dye for OCI-Ly1, OCI-Ly3, and TMD8 cells treated with 1 μM of compound M1i-124 or DMSO control, where the intensity of the staining decreases with each round of cell division. At days 0 and 6 after staining of DMSO- and compound-treated cells, CellTrace Violet fluorescence was measured on a BD LSR II instrument and Mean Fluorescent Intensity (MFI) was analyzed by FlowJo (version 10.8.0, BD). […]
(§4) For CellTrace Violet, CellTiter-glo, and Annexin V apoptosis assays, cell were cultured in media with 50% of the usual serum. […]

Experiment [1] concerns OCI-Ly3 cells. The experiment can be described thus: CellTrace Violet dilution/cell division assay. Format: cell-based, human. As to conditions: OCI-Ly3, 1 μM. Here is the method:
as §1, §2, §3, §4

Another experiment deals with TMD8 cells. Put plainly: CellTrace Violet dilution/cell division assay. Format: cell-based, human. As to conditions: TMD8, 1 μM. The method, then: as §1, §2, §3, §4
Experiment [2] concerns the target T1, binding of Id1 to immobilized MyoD (Homo sapiens, UniProt P41134).
T1 construct: purchased Proteintech Ag13359 (GST-ID1); Ag13186 (His-MyoD1)
T1 sequence (P41134 1-155): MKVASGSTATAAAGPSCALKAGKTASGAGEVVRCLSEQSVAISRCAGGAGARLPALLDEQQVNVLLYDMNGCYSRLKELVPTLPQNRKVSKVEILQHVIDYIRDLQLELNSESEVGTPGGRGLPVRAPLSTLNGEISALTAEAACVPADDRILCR
Put plainly: MyoD1/ID1 ELISA (specificity control). As to conditions: for inhibition of binding of Id1 to immobilized MyoD: result in words. The method, then:
ELISA-based protein-protein interaction assay. On a high-binding 96-well ELISA microplate (Greiner Cat# 655061), 100 ng of His-tagged recombinant human full-length BCL10 protein (Novus Cat# NBP1-99064) or in 100 µl PBS was allowed to adhere overnight at 4°C. The plate was blocked with 5% BSA in PBS for 1 hour at room temperature. After washing twice with PBS-T, a mixture of 100 ng of GST-tagged recombinant human full-length MALT1 protein (Novus Biologicals Cat# H00010892-P01) and compound that was preincubated for 1 hour in 100 μl PBS was added to the plate for 1 hour at room temperature. After washing three times with PBS-T, anti-MALT1 antibody (Cell Signaling Technology, Cat# 2494) in 5% BSA in PBS was added at 1:1000 dilution for 1 hour at room temperature. After washing three times with PBS-T, HRP-conjugated secondary antibody in 5% BSA in PBS was added at 1:5000 dilution for 1 hour at room temperature. After washing three times with PBS-T, 100 µl of 3,3’,5,5’-tetramethylbenzidine (TMB) substrate solution (Thermo Scientific, Cat# 34028) was added for up to 15 minutes, and 100 µl of 2 M sulfuric acid was added to stop the reaction. The plate was read at 450 nm using a spectrophotometer (Molecular Devices SpectraMax i3). The MyoD1/ID ELISA was performed as above except that 100 ng of recombinant human His-tagged MyoD1 (Proteintech, Cat# Ag13186) was plated overnight at 4°C prior to the addition of 100 ng of recombinant human GST-ID1 (Proteintech, Cat# Ag13359) preincubated to with compounds. The anti-GST antibody (clone 26H1, Cell signaling Technology, Cat #2624) was used to detect bound ID1. […]

For experiment [3], the system named is OCI-Ly3 cells. The experiment can be described thus: cells. The arrangement: species or system TMD8 or OCI-Ly3; Inhibition of spontaneous IL-10 secretion from ABC-DLBCL cells, human IL-10 ELISA of supernatants. As to conditions: Homo sapiens, OCI-Ly3, 20 h; IL-10 secretion; read-out: IC50 (µM) IL-10 inhibition. The method, then:
Cytokine ELISAs. Cytokines in cell culture supernatants were measured 20-24h after treatment with 0, 0.01, 0.03, 0.1, 0.3, 1, or 3 µM of compounds using the following ELISA kits according to the manufacturer’s instructions: Human IL-2 ELISA (BioLegend Cat# 431804), Human IL-6 ELISA (BioLegend Cat# 430504), and Human IL-10 ELISA (BioLegend Cat# 430604). TMD8 and OCI-Ly3 cells were treated with specific doses of compounds in serum-free media for 20 hours. Jurkat T cells were pretreated with specific doses of compounds for 8 hours in serum-free media, then stimulated with PMA/ionomycin for 16 hours prior to the collection of supernatants. Mouse splenocytes were isolated from spleens of C57/BL6 mice by passing spleens through a 70 micron filter followed by red blood cell lysis using ACK lysing buffer (Quality Biologics, Cat# 118-156-101). […] Supernatant was collected at 24 hours and mouse IL-2 levels were analyzed via ELISA (R&D Systems, Cat# DY402-05). IL-6 and IL-10 are NF-κB–induced cytokines that promote the proliferation and survival of malignant B cells through both autocrine and paracrine mechanisms ([44]), and are negative prognostic factors in ABC-DLBCL ([45], [46]). ABC-DLBCL cell lines spontaneously secrete substantial levels of IL-6 and IL-10, whereas GCB-DLBCL cell lines express only a negligible amount of these cytokines ([24]). […] The IC50 for inhibition of cytokine secretion by each compound in each cell line is reported in Supplemental Table 1.  Figure 4 M1i-124 and M1i-124d1 inhibit MALT1 protease and scaffolding functions, and MALT1-dependent cytokine secretion, in ABC-DLBCL cells. (A and B) Effect of 1 μM compound pretreatment on constitutive RelB cleavage (A) and IκB phosphorylation (B) within TMD8 cells. Representative Western blots are shown along with quantification (mean ± SEM; n = 2). (C) IL6 and IL10 mRNA levels in TMD8 cells treated with 1 μM M1i-124 or M1i-124d1 (mean ± SEM; n = 6). […] Statistical analyses were performed using 1-way ANOVA and Dunnett’s multiple-comparison test. **P < 0.01, ***P < 0.001, ****P < 0.0001.

Values joined by “and” are separate entries in the source; they are usually repeats but may differ in a detail not shown here. Identical values can stand only once.

Regarding `O=S(=O)(NCc1ccc2c(c1)OCO2)c1ccc(Cc2ccc(S(=O)(=O)NCc3ccc4c(c3)OCO4)cc2)cc1` [M1i-124], the activity at 1 µM in the experiment with OCI-Ly1 cells (Homo sapiens, OCI-Ly1, 144 h, day 6, read-out: CellTrace Violet dilution (Percent of Control)) is 73.1%; in the experiment on TMD8 cells (Homo sapiens, TMD8, 144 h, day 6, read-out: CellTrace Violet dilution (Percent of Control)) it was 42.2%. Moreover, the cell division result with OCI-Ly1 cells (6 days, result in words) is reported as “minimal effect”; with OCI-Ly3 cells [1] (6 days, result in words), “substantially reduced”; with TMD8 cells (6 days, result in words), “substantially reduced”. The “CellTrace Violet dilution (Percent of Control)” value was 82.43% of Control and 74.14% of Control and 90.83% of Control with OCI-Ly1 cells (day 6, 1 µM); 39.99% of Control and 46.66% of Control and 31.33% of Control and 60.69% of Control with OCI-Ly3 cells [1] (day 6, 1 µM); 48.11% of Control and 53.597% of Control and 42.644% of Control in the experiment on TMD8 cells (day 6, 1 µM). In addition, the “MyoD-Id Interaction (% of control)” value is 75 % of control and 118.107 % of control and 86.1723 % of control in experiment [2] (0.0975 µM); 70.9459 % of control and 110.989 % of control and 93.988 % of control in experiment [2] (0.39 µM); 102.244 % of control and 139.153 % of control and 113.828 % of control in experiment [2] (1.56 µM); 126.689 % of control and 146.808 % of control and 132.264 % of control in experiment [2] (6.25 µM); 149.548 % of control and 131.062 % of control in experiment [2] (12.5 µM); 150.772 % of control and 122.599 % of control and 116.032 % of control in experiment [2] (25 µM). The “MyoD-Id Interaction (% of control)” value was 152.034 % of control and 140.013 % of control in experiment [2] (50 µM); 153.861 % of control and 138.475 % of control and 133.2 % of control in experiment [2] (100 µM). Moreover, the remaining activity at 12.5 µM in experiment [2] (12.5 µM, read-out: MyoD-Id Interaction (% of control)) came to 145%. For the same molecule, the remaining activity at 50 µM in experiment [2] (50 µM, read-out: MyoD-Id Interaction (% of control)) is 158%. The “inhibition of binding of Id1 to immobilized MyoD” value in experiment [2] is reported as “neither M1i-124 nor M1i-124d1 could inhibit”. Besides, in the experiment with OCI-Ly3 cells [3], the IC50 – broadly, the concentration that gives 50% inhibition – was 0.7 µM.

Consider `COc1ccc(CNS(=O)(=O)c2ccc(Cc3ccc(S(=O)(=O)NCc4ccc(OC)cc4)cc3)cc2)cc1` [M1i-124d1], for which the “MyoD-Id Interaction (% of control)” value in experiment [2] (0.0975 µM) was 78.8369 % of control and 104.379 % of control and 92.0174 % of control; in experiment [2] (0.39 µM) it was 96.3277 % of control and 95.1904 % of control; in experiment [2] (1.56 µM), 85.8349 % of control and 109.633 % of control and 85.4375 % of control; in experiment [2] (6.25 µM), 108.475 % of control and 92.4516 % of control; in experiment [2] (12.5 µM), 119.401 % of control and 82.5424 % of control and 93.487 % of control; in experiment [2] (25 µM), 109.677 % of control and 97.6271 % of control and 64.0281 % of control. Also, the “MyoD-Id Interaction (% of control)” value in experiment [2] (50 µM) was 120.512 % of control and 93.4463 % of control and 89.2118 % of control; in experiment [2] (100 µM) it was 139.841 % of control and 108.927 % of control and 105.812 % of control. For the same molecule, in experiment [2] (0.39 µM, read-out: MyoD-Id Interaction (% of control)), the remaining activity at 0.39 µM came out at 80.9%. For the same molecule, the remaining activity at 6.25 µM in experiment [2] (6.25 µM, read-out: MyoD-Id Interaction (% of control)) was 97.9%. The “inhibition of binding of Id1 to immobilized MyoD” value in experiment [2] is “neither M1i-124 nor M1i-124d1 could inhibit”. The 50% inhibitory concentration (IC50) in the experiment on OCI-Ly3 cells [3] is 2.2 µM.

These data come from PMC11996864, “A small-molecule inhibitor of BCL10-MALT1 interaction abrogates progression of diffuse large B cell lymphoma” (The Journal of Clinical Investigation, 2025).
